For assay [1], the target named is T1, Dopamine D2 (Rattus norvegicus, UniProt P61169).
T1 construct: dopaminergic receptors was also measured using rat striata; from tissue; host or cells: rat striata
Put plainly: Binding to dopaminergic receptors using rat striata (method of Terai et al.). The protocol:
The binding of these compounds to dopaminergic receptors was also measured using rat striata according to the method described by Terai et al. (M. Terai, et al., Eur. J. Pharmacol. 1989, 173, 177).

Assay [2] deals with sigma 1 binding site (Cavia porcellus, UniProt Q60492).
For assay [3], the target named is T2, sigma 2 binding site (Rattus norvegicus, UniProt Q5U3Y7).
T2 sequence (Q5U3Y7 1-176): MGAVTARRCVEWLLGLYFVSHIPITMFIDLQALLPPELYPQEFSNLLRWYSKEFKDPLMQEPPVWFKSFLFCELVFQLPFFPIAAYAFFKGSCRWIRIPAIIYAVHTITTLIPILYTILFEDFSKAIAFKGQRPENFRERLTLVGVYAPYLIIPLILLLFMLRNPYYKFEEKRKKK
Put plainly: Sigma 2 selective receptor binding inhibition assay with [^3H]-di-o-tolylguanidine. Conditions: for S2/S1 Ratio: ratio of Sigma 2 Ki to Sigma 1 Ki; for Ki: read-out: Sigma 2 Ki(nM ± SEM), [^3H]-DTG 1 nM, rat liver crude P2 membrane fraction, 500 nM pentazocine, 2 hours at 25°C.

This note sets out measurements from EP0881220A1, “DIARYLSULTAM DERIVATIVES” (priority 1996, dated 1997).

The term Ki denotes the equilibrium dissociation constant of an inhibitor or competing ligand from its target.

The structures appear in SMILES notation.

T1 sequence (P61169 whole entry): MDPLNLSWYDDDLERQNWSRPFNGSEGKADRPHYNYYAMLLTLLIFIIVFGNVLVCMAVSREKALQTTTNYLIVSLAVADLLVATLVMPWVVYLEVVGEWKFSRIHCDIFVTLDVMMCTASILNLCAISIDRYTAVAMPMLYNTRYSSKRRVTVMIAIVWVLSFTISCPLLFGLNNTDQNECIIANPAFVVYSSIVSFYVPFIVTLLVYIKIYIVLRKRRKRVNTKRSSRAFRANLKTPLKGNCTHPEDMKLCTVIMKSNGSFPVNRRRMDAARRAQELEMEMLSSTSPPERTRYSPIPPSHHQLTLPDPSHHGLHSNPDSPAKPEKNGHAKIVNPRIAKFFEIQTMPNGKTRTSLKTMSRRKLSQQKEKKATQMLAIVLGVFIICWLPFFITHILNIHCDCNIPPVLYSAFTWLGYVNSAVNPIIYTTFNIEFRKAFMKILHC
Chain of sigma 1 binding site (Q60492 whole entry): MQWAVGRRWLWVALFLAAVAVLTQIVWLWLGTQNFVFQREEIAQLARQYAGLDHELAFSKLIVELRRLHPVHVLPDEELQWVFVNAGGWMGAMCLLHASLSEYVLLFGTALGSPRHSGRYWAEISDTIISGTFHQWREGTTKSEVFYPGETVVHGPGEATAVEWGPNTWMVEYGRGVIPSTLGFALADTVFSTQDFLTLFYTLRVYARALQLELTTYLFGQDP

On to `O=C(O)/C=C/C(=O)O.O=S1(=O)c2ccccc2Nc2ccccc2N1CC1CCN(C[C@H](O)C23CC4CC(CC(C4)C2)C3)CC1.O=S1(=O)c2ccccc2Nc2ccccc2N1CC1CCN(C[C@H](O)C23CC4CC(CC(C4)C2)C3)CC1` [Example 2, (R,S)-1-(1-Adamantyl)-2-[4-(6,11-dihydrodibenzo[c,f][1,2,5]thiadiazepin-6-ylmethyl)piperidin-1-yl]ethanol S,S-dioxide hemifumarate], for which the inhibition constant Ki was found to be 450 nM in assay [1], 320 nM in assay [2] and 4.1 nM in assay [3]. Besides, the “S2/S1 Ratio” value in assay [3] came to 0.01.

Regarding `O=C(O)/C=C/C(=O)O.O=S1(=O)c2ccccc2Oc2ccccc2N1CC1CCN(C[C@H](O)C23CC4CC(CC(C4)C2)C3)CC1.O=S1(=O)c2ccccc2Oc2ccccc2N1CC1CCN(C[C@H](O)C23CC4CC(CC(C4)C2)C3)CC1` [Example 10, (R,S)-1-(1-Adamantyl)-2-[4-(6H-dibenzo[b,f][1,4,5]oxathiazepin-6-yl-methyl)piperidin-1-yl]ethanol S,S-dioxide hemi-fumarate], the inhibitory constant (Ki) in assay [1] was more than 1000 nM; in assay [2] it was 200 nM; in assay [3] it was 0.76 nM. Also, the “S2/S1 Ratio” value in assay [3] was 0.004.
